Reference: patent publication US8772480B2, “Inhibitors of PI3 kinase and/or mTOR” (priority 2009, dated 2014)
Read-outs that look alike come from different tables or passages of the source.

Columns and labels:
PI3Kα = PI3Kα (Homo sapiens (Human), UniProt P42336); conditions: read-out: PI3Kα AlphaScreen ® Ki
[1] = system: phosphorylation of Akt at Serine 473 in U87 MG cells; assay: cells; conditions: Homo sapiens, U-87 MG, 2 h
[2] = read-out: U87Cell IC50, pAkt (Ser 473), U87 MG cells, two hours with compound

Sequence of PI3Kα (P42336 whole entry): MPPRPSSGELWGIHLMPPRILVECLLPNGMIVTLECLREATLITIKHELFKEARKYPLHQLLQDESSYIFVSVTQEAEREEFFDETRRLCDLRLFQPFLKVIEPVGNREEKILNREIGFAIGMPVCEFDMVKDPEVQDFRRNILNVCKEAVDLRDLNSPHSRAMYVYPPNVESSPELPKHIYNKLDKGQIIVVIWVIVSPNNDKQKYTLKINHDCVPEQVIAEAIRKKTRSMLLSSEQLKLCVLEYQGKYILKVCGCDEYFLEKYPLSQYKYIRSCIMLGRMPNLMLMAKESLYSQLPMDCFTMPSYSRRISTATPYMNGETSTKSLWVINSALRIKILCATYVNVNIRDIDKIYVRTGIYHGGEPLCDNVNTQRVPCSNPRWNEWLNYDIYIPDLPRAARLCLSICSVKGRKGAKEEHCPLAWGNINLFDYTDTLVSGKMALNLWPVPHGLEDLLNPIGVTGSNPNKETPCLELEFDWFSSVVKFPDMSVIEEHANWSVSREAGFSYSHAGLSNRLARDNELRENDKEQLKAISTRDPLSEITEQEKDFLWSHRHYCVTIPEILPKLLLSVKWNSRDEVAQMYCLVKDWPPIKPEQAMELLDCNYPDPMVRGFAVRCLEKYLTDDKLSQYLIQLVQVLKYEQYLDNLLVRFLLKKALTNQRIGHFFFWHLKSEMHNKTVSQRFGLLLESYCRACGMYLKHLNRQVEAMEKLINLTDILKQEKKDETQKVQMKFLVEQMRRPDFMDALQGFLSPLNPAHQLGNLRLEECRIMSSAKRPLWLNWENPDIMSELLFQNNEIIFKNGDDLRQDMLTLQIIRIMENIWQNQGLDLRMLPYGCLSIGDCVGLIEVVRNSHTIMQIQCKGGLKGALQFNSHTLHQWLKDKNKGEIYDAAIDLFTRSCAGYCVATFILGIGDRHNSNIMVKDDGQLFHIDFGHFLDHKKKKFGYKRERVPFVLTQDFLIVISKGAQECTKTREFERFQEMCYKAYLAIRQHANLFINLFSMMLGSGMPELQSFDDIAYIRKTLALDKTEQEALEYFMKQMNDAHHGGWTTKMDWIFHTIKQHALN
Sequence of PI3Kα (P27986 whole entry partner): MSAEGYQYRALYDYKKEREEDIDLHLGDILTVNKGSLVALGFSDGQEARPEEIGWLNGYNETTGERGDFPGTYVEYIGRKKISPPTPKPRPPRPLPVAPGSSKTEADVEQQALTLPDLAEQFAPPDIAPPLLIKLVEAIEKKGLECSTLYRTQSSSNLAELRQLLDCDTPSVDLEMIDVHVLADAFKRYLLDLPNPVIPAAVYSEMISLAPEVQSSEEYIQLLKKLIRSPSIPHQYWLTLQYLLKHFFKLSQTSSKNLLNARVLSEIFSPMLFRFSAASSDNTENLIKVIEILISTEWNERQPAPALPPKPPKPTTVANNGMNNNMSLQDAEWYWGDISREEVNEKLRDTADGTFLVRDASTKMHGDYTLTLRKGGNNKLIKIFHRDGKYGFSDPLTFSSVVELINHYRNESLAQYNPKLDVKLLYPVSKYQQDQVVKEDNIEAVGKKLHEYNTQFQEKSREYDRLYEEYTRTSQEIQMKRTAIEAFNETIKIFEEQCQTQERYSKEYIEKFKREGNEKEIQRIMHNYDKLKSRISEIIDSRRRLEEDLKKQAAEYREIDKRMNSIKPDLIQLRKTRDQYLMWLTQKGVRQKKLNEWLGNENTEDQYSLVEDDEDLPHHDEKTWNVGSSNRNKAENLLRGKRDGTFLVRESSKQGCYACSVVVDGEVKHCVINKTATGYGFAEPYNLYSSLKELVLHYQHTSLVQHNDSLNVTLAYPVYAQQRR

CC(=O)Nc1ccc(Nc2ncc(CN3CCN(S(C)(=O)=O)CC3)cc2-c2nc(C)nc(N)n2)cc1F [Example 267, N-(4-(3-(4-Amino-6-Methyl-1,3,5-Triazin-2-yl)-5-((4-(Methylsulfonyl)Piperazin-1-yl)Methyl)Pyridin-2-Ylamino)-2-Fluorophenyl)Acetamide]
Ki (PI3Kα): 0.369 µM
IC50 [1, 2]: 0.486 µM

COc1ccc(Nc2ncc(CN3CC[S+]([O-])CC3)cc2-c2nc(C)nc(N)n2)cn1 [Example 202, 4-(2-(6-Methoxypyridin-3-Ylamino)-5-(1-Sulfoxidemorpholinomethyl)Pyridin-3-yl)-6-Methyl-1,3,5-Triazin-2-Amine]
Ki (PI3Kα): 0.147 µM
IC50 [1, 2]: 0.124 µM

COc1ncc(Nc2ncc(C(C)(C)O)nc2-c2cc(N)nc(C)n2)cc1F [Example 284, 2-(6-(6-Amino-2-Methylpyrimidin-4-yl)-5-(5-Fluoro-6-Methoxypyridin-3-Ylamino)Pyrazin-2-yl)Propan-2-ol]
Ki (PI3Kα): 0.031 µM
IC50 [1, 2]: 0.063 µM

COc1ncc(Nc2nc(-c3ccncc3)ccc2-c2nc(C)nc(N)n2)cc1F [Example 175, 5-(4-Amino-6-Methyl-1,3,5-Triazin-2-yl)-N-(5-Fluoro-6-Methoxypyridin-3-yl)-2,4′-Bipyridin-6-Amine]
Ki (PI3Kα): 0.063 µM
IC50 [1, 2]: > 10 µM

COc1ccc(Nc2ncc(CN3CCSCC3)cc2-c2nc(C)nc(N)n2)cn1 [Example 201, 4-(2-(6-Methoxypyridin-3-Ylamino)-5-(Thiomorpholinomethyl)Pyridin-3-yl)-6-Methyl-1,3,5-Triazin-2-Amine]
Ki (PI3Kα): 0.094 µM
IC50 [1, 2]: 0.066 µM

COc1ccc(Nc2ncccc2-c2nc(C)nc(N)n2)cc1F [Example 166, 4-(2-(3-Fluoro-4-Methoxyphenylamino)Pyridin-3-yl)-6-Methyl-1,3,5-Triazin-2-Amine]
Ki (PI3Kα): 0.177 µM
IC50 [1, 2]: 0.902 µM

COc1ncc(Nc2ncc(CN3CCN(S(C)(=O)=O)[C@H](C)C3)cc2-c2nc(C)nc(N)n2)cc1F [Example 364, (R)-4-(2-(5-Fluoro-6-Methoxypyridin-3-Ylamino)-5-((3-Methyl-4-(Methylsulfonyl)Piperazin-1-yl)Methyl)Pyridin-3-yl)-6-Methyl-1,3,5-Triazin-2-Amine]
Ki (PI3Kα): 0.005 µM
IC50 [1, 2]: 0.007 µM

Cc1nc(N)nc(-c2cccnc2Nc2ccc(Cl)nc2)n1 [Example 54, 4-(2-(6-Chloropyridin-3-Ylamino)Pyridin-3-yl)-6-Methyl-1,3,5-Triazin-2-Amine]
Ki (PI3Kα): 0.16 µM
IC50 [1, 2]: 0.674 µM

Cc1nc(N)nc(-c2cc(CN3CCN(S(C)(=O)=O)CC3)cnc2Nc2cc[nH]n2)n1 [Example 244, 4-(2-(1H-Pyrazol-3-Ylamino)-5-((4-(Methylsulfonyl)Piperazin-1-yl)Methyl)Pyridin-3-yl)-6-Methyl-1,3,5-Triazin-2-Amine]
Ki (PI3Kα): 1.46 µM
IC50 [1, 2]: 1.49 µM

COc1ccc(Nc2ncc(C(C)=O)nc2-c2cc(N)nc(C)n2)cn1 [Example 285, 1-(6-(6-Amino-2-Methylpyrimidin-4-yl)-5-(6-Methoxypyridin-3-Ylamino)Pyrazin-2-yl)Ethanone]
Ki (PI3Kα): 0.103 µM
IC50 [1, 2]: > 10 µM

COCCOc1cnc(Nc2cnc(C)c(NS(C)(=O)=O)c2)c(-c2nc(C)nc(N)n2)c1 [Example 376, N-(5-(3-(4-Amino-6-Methyl-1,3,5-Triazin-2-yl)-5-(2-Methoxyethoxy)Pyridin-2-Ylamino)-2-Methylpyridin-3-yl)Methanesulfonamide]
Ki (PI3Kα): 0.071 µM
IC50 [1, 2]: 0.267 µM

Cc1nc(N)cc(-c2nc3ccccc3nc2Nc2cccc3[nH]ncc23)n1 [Example 180, 3-(6-Amino-2-Methylpyrimidin-4-yl)-N-(1H-Indazol-4-yl)Quinoxalin-2-Amine]
Ki (PI3Kα): 0.124 µM
IC50 [1, 2]: 1.57 µM

COc1ccc(Nc2ncc(C(C)(O)C(F)(F)F)cc2-c2nc(C)nc(N)n2)cn1 (centres unmarked) [Example 320, 2-(5-(4-amino-6-methyl-1,3,5-triazin-2-yl)-6-(6-methoxypyridin-3-ylamino)pyridin-3-yl)-1,1,1-trifluoropropan-2-ol]
Ki (PI3Kα): 0.124 µM
IC50 [1, 2]: 0.061 µM

COc1ccc(Nc2ncc(CN[C@H](C)CO)cc2-c2nc(C)nc(N)n2)cn1 [Example 226, (R)-2-((5-(4-Amino-6-Methyl-1,3,5-Triazin-2-yl)-6-(6-Methoxypyridin-3-Ylamino)Pyridin-3-yl)Methylamino)Propan-1-ol]
Ki (PI3Kα): 0.354 µM
IC50 [1, 2]: 0.573 µM

COc1ncc(Nc2ncc(C(O)C(C)(C)O)cc2-c2nc(C)nc(N)n2)cc1F (centres unmarked) [Example 347, 1-(5-(4-Amino-6-Methyl-1,3,5-Triazin-2-yl)-6-(5-Fluoro-6-Methoxypyridin-3-Ylamino)Pyridin-3-yl)-2-Methylpropane-1,2-Diol]
Ki (PI3Kα): 0.075 µM
IC50 [1, 2]: 0.108 µM

Cc1nc(N)cc(-c2nccnc2Nc2cnc(Cl)c(NS(C)(=O)=O)c2)n1 [Example 307, N-(5-((3-(6-amino-2-methyl-4-pyrimidinyl)-2-pyrazinyl)amino)-2-chloro-3-pyridinyl)methanesulfonamide]
Ki (PI3Kα): 0.26 µM
IC50 [1, 2]: > 10 µM

COc1ccc(Nc2ncc(C(N)c3ccc(S(=O)(=O)N(C)C)cc3)cc2-c2nc(C)nc(N)n2)cn1 (centres unmarked) [Example 237, 4-(Amino(5-(4-Amino-6-Methyl-1,3,5-Triazin-2-yl)-6-(6-Methoxypyridin-3-Ylamino)Pyridin-3-yl)Methyl)-N,N-Dimethylbenzenesulfonamide]
Ki (PI3Kα): 0.018 µM
IC50 [1, 2]: 0.046 µM

COc1ccc(Nc2ncc(CNCc3ccccn3)cc2-c2nc(C)nc3[nH]cnc23)cn1 [Example 136, N-(6-methoxypyridin-3-yl)-3-(2-methyl-9H-purin-6-yl)-5-((pyridin-2-ylmethylamino)methyl)pyridin-2-amine]
Ki (PI3Kα): 0.054 µM
IC50 [1, 2]: 0.124 µM

Cc1nc(N)nc(-c2cc([C@@H](C)N3CCN(S(C)(=O)=O)CC3)cnc2Nc2ccc3cccnc3c2)n1 [Example 310, (R)—N-(3-(4-amino-6-methyl-1,3,5-triazin-2-yl)-5-(1-(4-(methylsulfonyl)piperazin-1-yl)ethyl)pyridin-2-yl)quinolin-7-amine 2,2,2-trifluoroacetate]
Ki (PI3Kα): 0.036 µM
IC50 ([1]; read-out: U87Cell IC50): 0.065 µM

COc1ccc(CNc2cnc(Nc3ccc(OC)nc3)c(-c3nc(C)nc4[nH]cnc34)c2)cc1 [Example 95, N5-(4-methoxybenzyl)-N2-(6-methoxypyridin-3-yl)-3-(2-methyl-9H-purin-6-yl)pyridine-2,5-diamine]
Ki (PI3Kα): 0.077 µM
IC50 [1, 2]: 0.272 µM

COc1ncc(Nc2ncc([C@H](C)N3CCOCC3)cc2-c2cc(N)nc(C)n2)cc1F [Example 275, 6-(2-((5-Fluoro-6-Methoxy-3-Pyridinyl)Amino)-5-((1S)-1-(4-Morpholinyl)Ethyl)-3-Pyridinyl)-2-Methyl-4-Pyrimidinamine]
Ki (PI3Kα): 0.032 µM
IC50 [1, 2]: 0.018 µM

Cc1nc(N)nc(-c2cc(-c3cnn(C)c3)cnc2Nc2cncc(F)c2)n1 [Example 258, 4-(2-(5-Fluoropyridin-3-Ylamino)-5-(1-Methyl-1H-Pyrazol-4-yl)Pyridin-3-yl)-6-Methyl-1,3,5-Triazin-2-Amine]
Ki (PI3Kα): 0.014 µM
IC50 [1, 2]: 0.192 µM

COc1cc(Nc2ncc(C(C)(C)O)cc2-c2nc(C)nc(N)n2)cnc1Cl [Example 342, 2-(5-(4-Amino-6-Methyl-1,3,5-Triazin-2-yl)-6-(6-Chloro-5-Methoxypyridin-3-Ylamino)Pyridin-3-yl)Propan-2-ol]
Ki (PI3Kα): 0.025 µM
IC50 [1, 2]: 0.008 µM

Cc1nc(-c2cc(C(C)N3CCOCC3)cnc2Nc2cnc(Cl)c(NS(C)(=O)=O)c2)c2nc[nH]c2n1 (centres unmarked) [Example 339, N-(2-Chloro-5-(3-(2-Methyl-9H-Purin-6-yl)-5-(1-Morpholinoethyl)Pyridin-2-Ylamino)Pyridin-3-yl)Methanesulfonamide]
Ki (PI3Kα): 0.003 µM
IC50 [1, 2]: 0.045 µM

COc1ccc(Nc2ncc(-c3ccc(OC)nc3)cc2-c2nc(C)nc(N)n2)cn1 [Example 169, 5-(4-Amino-6-Methyl-1,3,5-Triazin-2-yl)-6′-Methoxy-N-(6-Methoxypyridin-3-yl)-3,3′-Bipyridin-6-Amine]
Ki (PI3Kα): 0.017 µM
IC50 [1, 2]: 0.105 µM

COc1ccc(Nc2ncc([C@@H](C)N3CCN(S(C)(=O)=O)CC3)cc2-c2nc(C)nc(N)n2)cn1 [Example 146, (R)-4-(2-(6-Methoxypyridin-3-Ylamino)-5-(1-(4-(Methylsulfonyl)Piperazin-1-yl)Ethyl)Pyridin-3-yl)-6-Methyl-1,3,5-Triazin-2-Amine]
Ki (PI3Kα): 0.006 µM
IC50 [1, 2]: 0.007 µM

COc1ccc(Nc2ncc(CN3CCOCC3=O)cc2-c2nc(C)nc(N)n2)cn1 [Example 154, 4-((5-(4-Amino-6-Methyl-1,3,5-Triazin-2-yl)-6-((6-Methoxy-3-Pyridinyl)Amino)-3-Pyridinyl)Methyl)-3-Morpholinone]
Ki (PI3Kα): 0.033 µM
IC50 [1, 2]: 0.079 µM

COc1ncc(Nc2ncc(C(C)O)cc2-c2nc(C)nc(N)n2)cc1F (centres unmarked) [Example 349, 1-(5-(4-Amino-6-Methyl-1,3,5-Triazin-2-yl)-6-(5-Fluoro-6-Methoxypyridin-3-Ylamino)Pyridin-3-yl)Ethanol]
Ki (PI3Kα): 0.059 µM
IC50 [1, 2]: 0.013 µM

Cc1nc(N)nc(-c2cc([C@@H](C)N3CCN(S(C)(=O)=O)CC3)cnc2Nc2ccc(Cl)nc2)n1 [Example 309, (R)-4-(2-(6-chloropyridin-3-ylamino)-5-(1-(4-(methylsulfonyl)piperazin-1-yl)ethyl)pyridin-3-yl)-6-methyl-1,3,5-triazin-2-amine]
Ki (PI3Kα): 0.044 µM
IC50 [1, 2]: 0.046 µM

Cc1nc(N)nc(-c2cc(Cl)cnc2NC2CCOCC2)n1 [Example 188, 4-(5-Chloro-2-(Tetrahydro-2H-Pyran-4-Ylamino)Pyridin-3-yl)-6-Methyl-1,3,5-Triazin-2-Amine]
Ki (PI3Kα): 2.08 µM
IC50 [1, 2]: > 10 µM

COc1ncc(Nc2ncc(CN3CCN(S(C)(=O)=O)C[C@@H]3C)cc2-c2nc(C)nc(N)n2)cn1 [Example 319, (S)-4-(2-(2-Methoxypyrimidin-5-Ylamino)-5-((2-Methyl-4-(Methylsulfonyl)Piperazin-1-yl)Methyl)Pyridin-3-yl)-6-Methyl-1,3,5-Triazin-2-Amine]
Ki (PI3Kα): 0.021 µM
IC50 [1, 2]: 0.052 µM
